Results from ChEMBL document CHEMBL3046832, “Synthesis of some sulfonamides, disubstituted sulfonylureas or thioureas and some structurally related variants. A class of promising antitumor agents” (2007).

Key:
Type in all cases: functional
OVCAR-8 = test: Cytotoxicity against Homo sapiens (human) OVCAR8 cells after 48 hr by SRB assay; conditions: OVCAR-8, 48 h
SK-MEL-2 = test: Cytotoxicity against Homo sapiens (human) SK-MEL-2 cells after 48 hr by SRB assay; conditions: SK-MEL-2, 48 h
ACHN = test: Cytotoxicity against Homo sapiens (human) ACHN cells after 48 hr by SRB assay
SK-MEL-28 = test: Cytotoxicity against Homo sapiens (human) SK-MEL-28 cells after 48 hr by SRB assay; conditions: SK-MEL-28, 48 h
HT-29 = test: Cytotoxicity against Homo sapiens (human) HT-29 cells after 48 hr by SRB assay; conditions: HT-29, 48 h
NCI-H460 = test: Cytotoxicity against Homo sapiens (human) NCI-H460 cells after 48 hr by SRB assay; conditions: NCI-H460, 48 h
UACC-257 = test: Cytotoxicity against Homo sapiens (human) UACC257 cells after 48 hr by SRB assay; conditions: UACC-257, 48 h
SF-539 = test: Cytotoxicity against Homo sapiens (human) SF539 cells after 48 hr by SRB assay; conditions: SF-539, 48 h
[1] = Cytotoxicity against Homo sapiens (human) non-small cell lung cancer cells after 48 hr by SRB assay; conditions: Cancer cell lines
SF-268 = test: Cytotoxicity against Homo sapiens (human) SF268 cells after 48 hr by SRB assay; conditions: SF-268, 48 h
LOX IMVI = test: Cytotoxicity against Homo sapiens (human) LOXIMVI cells after 48 hr by SRB assay
CCRF-CEM = test: Cytotoxicity against Homo sapiens (human) CCRF-CEM cells after 48 hr by SRB assay
SNB-75 = test: Cytotoxicity against Homo sapiens (human) SNB75 cells after 48 hr by SRB assay; conditions: SNB-75, 48 h
DU-145 = test: Cytotoxicity against Homo sapiens (human) DU145 cells after 48 hr by SRB assay; conditions: DU-145, 48 h
[2] = Cytotoxicity against Homo sapiens (human) prostate cancer cells after 48 hr by SRB assay; conditions: Cancer cell lines
TK-10 = test: Cytotoxicity against Homo sapiens (human) TK10 cells after 48 hr by SRB assay; conditions: TK-10, 48 h
HCC 2998 = test: Cytotoxicity against Homo sapiens (human) HCC2998 cells after 48 hr by SRB assay; conditions: HCC 2998, 48 h
HCT-116 = test: Cytotoxicity against Homo sapiens (human) HCT116 cells after 48 hr by SRB assay; conditions: HCT-116, 48 h
NCI-H226 = test: Cytotoxicity against Homo sapiens (human) NCI-H226 cells after 48 hr by SRB assay; conditions: NCI-H226, 48 h
K562 = test: Cytotoxicity against Homo sapiens (human) K562 cells after 48 hr by SRB assay; conditions: K562, 48 h

| SMILES | GI50 (OVCAR-8) | GI50 (SK-MEL-2) | GI50 (ACHN) | GI50 (SK-MEL-28) | GI50 (HT-29) | GI50 (NCI-H460) | GI50 (UACC-257) | GI50 (SF-539) | GI50 [1] | TGI [1] | GI50 (SF-268) | GI50 (LOX IMVI) | GI50 (CCRF-CEM) | GI50 (SNB-75) | GI50 (DU-145) | GI50 [2] | TGI [2] | GI50 (TK-10) | GI50 (HCC 2998) | GI50 (NCI-H226) | also measured |
| --- | --- | --- | --- | --- | --- | --- | --- | --- | --- | --- | --- | --- | --- | --- | --- | --- | --- | --- | --- | --- | --- |
| O=C(NC(=S)NS(=O)(=O)c1ccc(N2N=C3c4ccccc4CC3C2c2cccs2)cc1)c1ccccc1 (centres undefined) | 20.3 µM | 44 µM | > 100 µM | 84 µM | 46 µM | > 100 µM | 42.8 µM | 27.9 µM | 37.9 µM | 78.9 µM | > 100 µM | 15.2 µM | 27.9 µM | > 100 µM | 28.3 µM | 29 µM | > 100 µM | – | – | – | – |
| O=C1CS/C(=N\S(=O)(=O)c2ccc(N3N=C4c5ccccc5CC4C3c3cccs3)cc2)N1C(=O)c1ccccc1 (centres undefined) | 45.7 µM | > 100 µM | 23.6 µM | > 100 µM | 76 µM | > 100 µM | > 100 µM | 44.6 µM | 49.3 µM | 85.9 µM | > 100 µM | 22.7 µM | 37.5 µM | > 100 µM | 38.2 µM | 38.1 µM | > 100 µM | 49.6 µM | 17.6 µM | 58.5 µM | GI50 (HCT-116): 22 µM |
| O=S(=O)(/N=c1\scc(-c2ccccc2)n1-c1ccccc1)c1ccc(N2N=C3c4ccccc4CC3C2c2cccs2)cc1 (centres undefined) | 47.2 µM | > 100 µM | 42.5 µM | > 100 µM | 82 µM | 95.1 µM | > 100 µM | > 100 µM | 66.8 µM | 98.2 µM | > 100 µM | 32.4 µM | 50.3 µM | > 100 µM | > 100 µM | 87.5 µM | > 100 µM | 32.7 µM | 32.8 µM | 78.9 µM | GI50 (K562): > 100 µM |
| O=C(c1ccccc1)n1c(-c2ccccc2)cs/c1=N\S(=O)(=O)c1ccc(N2N=C3c4ccccc4CC3C2c2cccs2)cc1 (centres undefined) | 42.9 µM | > 100 µM | 43.8 µM | > 100 µM | 73.3 µM | > 100 µM | 45.7 µM | 58.6 µM | 43.7 µM | 83.9 µM | > 100 µM | 30.7 µM | 41.3 µM | > 100 µM | 47 µM | 43.1 µM | > 100 µM | 30.5 µM | 14 µM | 30.1 µM | GI50 (K562): 27.6 µM; GI50 (HCT-116): 30.5 µM |
| O=C1CCS/C(=N\S(=O)(=O)c2ccc(N3N=C4c5ccccc5CC4C3c3cccs3)cc2)N1c1ccccc1 (centres undefined) | 19.2 µM | 28 µM | 42.5 µM | 42.1 µM | 37 µM | > 100 µM | 24.2 µM | 21.8 µM | 29.6 µM | 47.4 µM | > 100 µM | 13.6 µM | 28 µM | 30.2 µM | > 100 µM | – | – | 32.7 µM | 17.9 µM | 26.5 µM | GI50 (K562): > 100 µM; GI50 (HCT-116): 20.3 µM |
| O=C1CCS/C(=N\S(=O)(=O)c2ccc(N3N=C4c5ccccc5CC4C3c3cccs3)cc2)N1C(=O)c1ccccc1 (centres undefined) | 0.81 µM | 29.4 µM | 5.18 µM | 50.2 µM | 39.6 µM | 26.6 µM | 0.33 µM | 23.8 µM | 21.7 µM | 71.4 µM | 13.7 µM | 7.61 µM | 15 µM | > 100 µM | 23.2 µM | 26.2 µM | > 100 µM | 24.5 µM | 18.2 µM | 15.9 µM | GI50 (K562): 26.4 µM; GI50 (HCT-116): 10 µM |
| O=C1CS/C(=N\S(=O)(=O)c2ccc(N3N=C4c5ccccc5CC4C3c3cccs3)cc2)N(c2ccccc2)C1 (centres undefined) | 25.4 µM | 60.2 µM | 22.1 µM | > 100 µM | 61 µM | > 100 µM | 42.3 µM | 27.8 µM | 41.2 µM | 79 µM | > 100 µM | 21.2 µM | 36.8 µM | > 100 µM | 30.7 µM | 37.8 µM | > 100 µM | – | 20.5 µM | 22.3 µM | GI50 (K562): 10.3 µM; GI50 (HCT-116): 12.5 µM |
